Assay results published in patent publication USRE48711E1, “Apoptosis signal-regulating kinase inhibitors” (Gilead Sciences, Inc., priority 2009, dated 2021).

target: ASK1 (Apoptosis Signal-Regulating Kinase 1) (Homo sapiens (Human), UniProt Q99683); test: ASK1 (Apoptosis Signal-Regulating Kinase 1) TR-FRET Kinase Assay (Biochemical IC50); conditions: TR-FRET, biotin-MBP substrate, 20 min pre-incubation, ATP added as 300 μM solution
Sequence (Q99683 649-946): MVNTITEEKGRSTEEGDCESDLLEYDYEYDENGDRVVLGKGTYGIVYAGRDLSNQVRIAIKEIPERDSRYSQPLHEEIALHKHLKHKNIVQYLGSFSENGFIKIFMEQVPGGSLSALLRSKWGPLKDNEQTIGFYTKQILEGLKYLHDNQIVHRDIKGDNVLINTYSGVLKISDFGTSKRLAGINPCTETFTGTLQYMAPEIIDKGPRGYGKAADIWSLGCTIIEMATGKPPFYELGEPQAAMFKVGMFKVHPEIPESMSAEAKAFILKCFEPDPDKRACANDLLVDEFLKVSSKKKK
Description: The ability of compounds to inhibit ASK1 kinase activity was determined using a time resolved fluorescence resonance energy transfer [TR-FRET] assay utilizing biotinylated myelin basic protein [biotin-MBP] as the protein substrate. […] The enzyme was allowed to pre-incubate with compound for 20 minutes prior to initiating the kinase reaction with the addition of 5 μL/well 300 μM ATP in buffer (50 mM MOPS, pH 7.0, 5 mM Mg-acetate, 1 mM DTT, 5% DMSO) using the Decrac Fluidics Equator. The kinase reactions were allowed to proceed for 20 minutes at ambient temperature and were subsequently stopped with the addition of 5 μL/well 25 mM EDTA using the Deerac Fluidics Equator. […] The TR-FRET signal was then read on a Perkin. Elmer Envision plate reader after incubating the plates at ambient temperature for 2 hours.

Which IC50 does the source give for O=C(Nc1cccc(-c2nncn2C2CC2)c1)c1cc(-c2cnc3c(c2)CN(CC(F)(F)F)CC3)ccn1 [Example 161, N-(3-(4-cyclopropyl-4H-1,2,4-triazol-3-yl)phenyl)-4-(6-(2,2,2-trifluoroethyl)-5,6,7,8-tetrahydro-1,6-naphthyridin-3-yl)picolinamide] here?
The IC50 was 9 nM.

Cc1ncn(-c2cccc(C(=O)Nc3cccc(-c4nncn4[C@@H](C)C(F)(F)F)n3)c2)c1C [Example 216, (S)-3-(4,5-dimethyl-1H-imidazol-1-yl)-N-(6-(4-(1,1,1-trifluoropropan-2-yl)-4H-1,2,4-triazol-3-yl)pyridin-2-yl)benzamide] was tested. Which IC50 did it give?
Its IC50 is 8 nM.

CCc1ncc(-c2ccnc(C(=O)Nc3cccc(-c4nncn4C4CC4)c3)c2)cc1Cl [Example 139, 5-chloro-N-(3-(4-cyclopropyl-4H-1,2,4-triazol-3-yl)phenyl)-6-ethyl-3,4′-bipyridine-2′-carboxamide] was tested. Which IC50 did it give?
Its IC50 is 16 nM.

How did the IC50 turn out when Cc1ccncc1-c1ccnc(C(=O)Nc2cccc(-c3nncn3C3CC3)c2)c1 [Example 57, N-(3-(4-cyclopropyl-4H-1,2,4-triazol-3-yl)phenyl)-4-methyl-3,4′-bipyridine-2′-carboxamide] was run?
The IC50 was 244 nM.

How did the IC50 turn out when COc1cncc(-c2ccnc(C(=O)Nc3cccc(-c4nncn4C)c3)c2)c1 [Example 11, 5-methoxy-N-(3-(4-methyl-4H-1,2,4-triazol-3-yl)phenyl)-3,4′-bipyridine-2′-carboxamide] was run?
The IC50 was 40 nM.

With C[C@H](n1cnnc1-c1cccc(NC(=O)c2cc(-n3cnc(C4CC4)c3)ccn2)c1)C(F)(F)F [Example 189, (S)-4-(4-cyclopropyl-1H-imidazol-1-yl)-N-(3-(4-(1,1,1-trifluoropropan-2-yl)-4H-1,2,4-triazol-3-yl)phenyl)picolinamide] as the compound, how does the IC50 read?
Its IC50 is 9 nM.

For Cn1cnnc1-c1cccc(NC(=O)c2cncc(-c3ccccc3)c2)c1 [Example 2, N-(3-(4-methyl-4H-1,2,4-triazol-3-yl)phenyl)-5-phenylnicotinamide], which IC50 is on record?
The IC50 was 5590 nM.

With O=C(Nc1cccc(-c2cncn2C2CC2)n1)c1cc(-c2ccc(C3CC3)nc2)ccn1 [Example 127, 6-cyclopropyl-N-(6-(1-cyclopropyl-1H-imidazol-5-yl)pyridin-2-yl)-3,4′-bipyridine-2′-carboxamide] as the compound, how does the IC50 read?
The IC50 was 211 nM.

For Cc1ncc(-c2ccnc(C(=O)Nc3cccc(-c4nncn4C4CC4)c3)c2)n1C [Example 73, N-(3-(4-cyclopropyl-4H-1,2,4-triazol-3-yl)phenyl)-4-(1,2-dimethyl-1H-imidazol-5-yl)picolinamide], which IC50 is on record?
The IC50 was 11 nM.

For CC(C)c1ccc(-c2ccnc(C(=O)Nc3cccc(-c4nncn4C4CC4)c3)c2)cn1 [Example 102, N-(3-(4-cyclopropyl-4H-1,2,4-triazol-3-yl)phenyl)-6-isopropyl-3,4′-bipyridine-2′-carboxamide], which IC50 is on record?
Its IC50 is 9 nM.

How did the IC50 turn out when O=C(Nc1cccc(-c2nncn2C2CC2)n1)c1cc(-n2cnc3c2CCNC3C(F)(F)F)ccn1 (stereo not drawn) [Example 195, N-(6-(4-cyclopropyl-4H-1,2,4-triazol-3-yl)pyridin-2-yl)-4-(4-(trifluoromethyl)-4,5,6,7-tetrahydro-1H-imidazo[4,5-c]pyridin-1-yl)picolinamide] was run?
Its IC50 is 8 nM.

CN(C)c1ccc(-c2ccnc(C(=O)Nc3cccc(-c4nncn4C4CC4)c3)c2)cn1 [Example 91, N-(3-(4-cyclopropyl-4H-1,2,4-triazol-3-yl)phenyl)-6-(dimethylamino)-3,4′-bipyridine-2′-carboxamide] was tested. Which IC50 did it give?
The IC50 was 18 nM.

With Cc1cc(-c2ccc(C3CC3)nc2)cc(C(=O)Nc2cccc(-c3nncn3C3CC3)c2)n1 [Example 249, 6-cyclopropyl-N-(3-(4-cyclopropyl-4H-1,2,4-triazol-3-yl)phenyl)-6′-methyl-3,4′-bipyridine-2′-carboxamide] as the compound, how does the IC50 read?
Its IC50 is 71 nM.

Cc1ccc(C(=O)Nc2cccc(-c3nncn3C3CC3)n2)cc1-n1cnc(C2CC2)c1 [Example 200, 3-(4-cyclopropyl-1H-imidazol-1-yl)-N-(6-(4-cyclopropyl-4H-1,2,4-triazol-3-yl)pyridin-2-y1)-4-methylbenzamide] was tested. Which IC50 did it give?
Its IC50 is 11 nM.

O=C(Nc1cccc(-c2nncn2C2CC2)c1)c1cc(-c2cnc3ccccc3c2)cc(C(F)(F)F)n1 [Example 125, N-(3-(4-cyclopropyl-4H-1,2,4-triazol-3-yl)phenyl)-4-(quinolin-3-yl)-6-(trifluoromethyl)picolinamide] was tested. Which IC50 did it give?
Its IC50 is 1450 nM.

For O=C(Nc1cccc(-c2nncn2C2CC2)n1)c1cncc(-c2ccc(C3CC3)nc2)c1 [Example 259, 6′-cyclopropyl-N-(6-(4-cyclopropyl-4H-1,2,4-triazol-3-yl)pyridin-2-yl)-3,3′-bipyridine-5-carboxamide], which IC50 is on record?
Its IC50 is 8 nM.

How did the IC50 turn out when O=C(Nc1cccc(-c2nncn2C2CC2)n1)c1cccc(-c2cnc3ccccc3c2)c1 [Example 150, N-(6-(4-cyclopropyl-4H-1,2,4-triazol-3-yl)pyridin-2-yl)-3-(quinolin-3-yl)benzamide] was run?
The IC50 was 17 nM.

Cn1cncc1-c1ccnc(C(=O)Nc2cccc(-c3nncn3C3CC3)c2)c1 [Example 36, N-(3-(4-cyclopropyl-4H-1,2,4-triazol-3-yl)phenyl)-4-(1-methyl-1H-imidazol-5-yl)picolinamide] was tested. Which IC50 did it give?
The IC50 was 18 nM.

For O=C(Nc1cccc(-c2nncn2C2CC2)c1)c1cc(-n2ccnc2)ccn1 [Example 27, N-(3-(4-cyclopropyl-4H-1,2,4-triazol-3-yl)phenyl)-4-(1H-imidazol-1-yl)picolinamide], which IC50 is on record?
Its IC50 is 11 nM.

CC(C)[C@H](C)n1cnnc1-c1cccc(NC(=O)c2cc(-c3ccc(C4CC4)nc3)ccn2)c1 [Example 238, (S)-6-cyclopropyl-N-(3-(4-(3-methylbutan-2-yl)-4H-1,2,4-triazol-3-yl)phenyl)-3,4′-bipyridine-2′-carboxamide] was tested. Which IC50 did it give?
The IC50 was 6 nM.

CC[C@H](C)n1cnnc1-c1cccc(NC(=O)c2cc(-c3ccc(C4CC4)nc3)ccn2)c1 [Example 237, (S)-N-(3-(4-sec-butyl-4H-1,2,4-triazol-3-yl)phenyl)-6-cyclopropyl-3,4′-bipyridine-2′-carboxamide] was tested. Which IC50 did it give?
The IC50 was 38 nM.

With Cc1c(C(=O)Nc2cccc(-c3nncn3C3CC3)n2)cccc1-n1cnc(C2CC2)c1 [Example 196, 3-(4-cyclopropyl-1H-imidazol-1-yl)-N-(6-(4-cyclopropyl-4H-1,2,4-triazol-3-yl)pyridin-2-yl)-2-methylbenzamide] as the compound, how does the IC50 read?
The IC50 was 1260 nM.

Which IC50 does the source give for O=C(Nc1cccc(-c2nncn2C2CC2)n1)c1cc(-n2cnc(-c3ccccc3)c2)ccn1 [Example 113, N-(6-(4-cyclopropyl-4H-1,2,4-triazol-3-yl)pyridin-2-yl)-4-(4-phenyl-1H-imidazol-1-yl)picolinamide] here?
Its IC50 is 10 nM.

Which IC50 does the source give for Cc1cnc(C(=O)Nc2cccc(-c3nncn3C3CC3)c2)cc1-c1ccc(C2CC2)nc1 [Example 250, 6-cyclopropyl-N-(3-(4-cyclopropyl-4H-1,2,4-triazol-3-yl)phenyl)-5′-methyl-3,4′-bipyridine-2′-carboxamide] here?
Its IC50 is 8 nM.

Which IC50 does the source give for CCN1CCN(c2ccnc(C(=O)Nc3cccc(-c4nncn4C4CC4)c3)c2)CC1=O [Example 177, N-(3-(4-cyclopropyl-4H-1,2,4-triazol-3-yl)phenyl)-4-(4-ethyl-3-oxopiperazin-1-yl)picolinamide] here?
Its IC50 is 47 nM.

With O=C(Nc1cccc(-c2nncn2C2CCOCC2)c1)c1cc(-c2cccnc2)ccn1 [Example 26, N-(3-(4-(tetrahydro-2H-pyran-4-yl)-4H-1,2,4-triazol-3-yl)phenyl)-3,4′-bipyridine-2′-carboxamide] as the compound, how does the IC50 read?
Its IC50 is 1970 nM.

How did the IC50 turn out when C[C@H](n1cnnc1-c1cccc(NC(=O)c2cc(-c3ccc(C4CC4)nc3)ccn2)c1)C(F)(F)F [Example 223, (S)-6-cyclopropyl-N-(3-(4-(1,1,1-trifluoropropan-2-yl)-4H-1,2,4-triazol-3-yl)phenyl)-3,4′-bipyridine-2′-carboxamide] was run?
The IC50 was 45 nM.

Which IC50 does the source give for O=C(Nc1cccc(-c2nncn2C2CC2)n1)c1cc(-c2cnc3ccccc3c2)ccn1 [Example 112, N-(6-(4-cyclopropyl-4H-1,2,4-triazol-3-yl)pyridin-2-yl)-4-(quinolin-3-yl)picolinamide] here?
The IC50 was 14 nM.

How did the IC50 turn out when O=C(Nc1cccc(-c2nncn2C2CC2)c1)c1cc(-n2cnc(Cl)c2)ccn1 [Example 122, 4-(4-chloro-1H-imidazol-1-yl)-N-(3-(4-cyclopropyl-4H-1,2,4-triazol-3-yl)phenyl)picolinamide] was run?
The IC50 was 17 nM.

For C[C@@H](c1ccccc1)n1cnnc1-c1cccc(NC(=O)c2cc(-c3ccc(C4CC4)nc3)ccn2)c1 [Example 220, (S)-6-cyclopropyl-N-(3-(4-(1-phenylethyl)-4H-1,2,4-triazol-3-yl)phenyl)-3,4′-bipyridine-2′-carboxamide], which IC50 is on record?
The IC50 was 61 nM.

With O=C(Nc1cccc(-c2nncn2C2CC2)c1)c1cc(-c2cncc(C3CC3)c2)ccn1 [Example 156, 5-cyclopropyl-N-(3-(4-cyclopropyl-4H-1,2,4-triazol-3-yl)phenyl)-3,4′-bipyridine-2′-carboxamide] as the compound, how does the IC50 read?
The IC50 was 11 nM.

How did the IC50 turn out when Cc1ncn(-c2ccnc(C(=O)Nc3cccc(-c4nncn4C4CC4)n3)c2)c1C [Example 160, N-(6-(4-cyclopropyl-4H-1,2,4-triazol-3-yl)pyridin-2-yl)-4-(4,5-dimethyl-1H-imidazol-1-yl)picolinamide] was run?
Its IC50 is 4 nM.

O=C(Nc1cccc(-c2nncn2C2CC2)c1)c1cc(N2CCCC(O)C2)ccn1 (stereo not drawn) [Example 174, N-(3-(4-cyclopropyl-4H-1,2,4-triazol-3-yl)phenyl)-4-(3-hydroxypiperidin-1-yl)picolinamide] was tested. Which IC50 did it give?
The IC50 was 93 nM.

With CC(C)(C)c1ccc(-c2ccnc(C(=O)Nc3cccc(-c4nncn4C4CC4)c3)c2)cn1 [Example 149, 6-tert-butyl-N-(3-(4-cyclopropyl-4H-1,2,4-triazol-3-yl)phenyl)-3,4′-bipyridine-2′-carboxamide] as the compound, how does the IC50 read?
The IC50 was 25 nM.

For O=C(Nc1cccc(-c2nncn2C2CC2)c1)c1cc(-c2ccc(C3CCCC3)nc2)ccn1 [Example 109, 6-cyclopentyl-N-(3-(4-cyclopropyl-4H-1,2,4-triazol-3-yl)phenyl)-3,4′-bipyridine-2′-carboxamide], which IC50 is on record?
The IC50 was 21 nM.

CC(C)n1cnnc1-c1cccc(NC(=O)c2cc(-n3cnc(C4CC4)c3)ccn2)c1 [Example 184, 4-(4-cyclopropyl-1H-imidazol-1-yl)-N-(3-(4-isopropyl-4H-1,2,4-triazol-3-yl)phenyl)picolinamide] was tested. Which IC50 did it give?
Its IC50 is 20 nM.
